Assay results published in patent US12631620B2, “Methods of generating organoids for high throughput screening of drugs” (Yissum Research Development Company of the Hebrew …, priority 2019, dated 2026).
Several values for one entry are separate records, joined by “and”; a condition that tells them apart may be missing. Equal entries are not always repeated.

What was measured:
HepG2/C3A organoids [1] = test: Real-time oxygen uptake toxicity (TC50, time to onset, lowest exposure level) in differentiated HepG2/C3A organoids; format: cell-based, human; conditions: for TC50: oxygen uptake; for lowest exposure level (LEL): horizontal asymptote, onset of damage at infinite time
Description: A suspension of HepG2/C3A cells and CPOx-50-RuP beads (Colibri Photonics, Germany) were suspended in 2.5 mg/ml rat tail collagen type I (Corning, USA) at a cell density of 7×10^5 cells/μl. A volume of 1.1 μl of the gel-imbedded mixture was injected into each microwell and left to form spontaneously until their metabolic activity stabilized around day 4.
Fifty-micrometer-diameter polystyrene microbeads were loaded with ruthenium-phenanthroline-based phosphorescence dye (CPOx-50-RuP). […] Oxygen acts as a quencher, leading to a decrease in decay time and signal intensity with increasing concentration. The present inventors chose to measure decay time, rather than signal intensity, as it is not sensitive to changes in probe concentration or excitation intensity over the course of the experiment. The signal was measured using the OPAL system (Colibri Photonics, Germany) that comprises of a control module, 532 nm LED excitation source, and a photomultiplier (PMT) detector mounted on the ocular of an IX81 Olympus microscope (Olympus, Japan). A filter cube with 531/40 (Ex), 555, 607/70 (Em) was inserted in the optical light path during measurements. To accurately measure decay time, the present inventors chose phase modulation in which sinusoidal amplitude-modulated light is shifted in phase due to oxygen quenching. To overcome the superposition of in-phase background fluorescence that alters the phase of the detected signal, the present inventors used a novel 53.5 and 31.3 kHz two-frequency phase modulation that allowed to screen out the interference [Schmalzlin E., et al., 2005. Biophysical journal, 89: 1339-1345; Papkovsky, D. B. et al., 2004. Methods in enzymology, 381, 715-735; Ast, C., et al., 2012. Sensors (Basel), 12: 7015-7032; Engelhard, S., et al., 2006. Analytical and bioanalytical chemistry, 384: 1107-1112; Prill, D. et al., 2016, Archives of toxicology, 90: 1181-1191]. Measurements were carried out by averaging five consecutive 4-s exposures. Measurements were taken every 15 minutes. Under similar conditions, 28 days of measurement of organoids was done with no apparent phototoxicity, signal drift, or relevant loss of signal intensity (Schmalzlin E., et al., 2005. Biophysical journal, 89: 1339-1345). Assessment of Cellular Toxicity and Time to Onset
Organoids were exposed to different concentrations of compounds dissolved in culture medium. Cell viability was determined by oxygen uptake following 24 hours of exposure unless otherwise noted. TC50 concentrations were determined using MATLAB by sigmoidal curve fitting (Wenner, M. M. et al., 2011, J Appl Physiol (1985), 111: 1703-1709; Prentice, R. L. et al., 1976, Biometrics, 32: 761-768). Time to onset was analyzed by MATLAB based on LPF and trend assessment.
To find the asymptotic concentration for which damage occurs only at infinite exposure time, the present inventors used a previously developed model for accumulative drug exposure (El-Kareh et al., 2000. Neoplasia, 2: 325-338; Currie, G. M. 2018. J Nucl Med Technol, DOI: 10.2967/jnmt.117.199588). The model is based on the steady-state dynamics of flux accumulation, using a linear first-order approximation of the cell membrane. The flux behavior is described by
where J(C) is the concentration dependent flux, Jmin is the minimal flux that will cause an effect, t is time of exposure and |τ is a drug-cell specific constant accounting reaction dynamics (Gowrishankar et al., 2003. Proceedings of the National Academy of Sciences of the United States of America, 100: 3203-3208; Kotnik T. et al., 2000. IEEE Trans Biomed Eng, 47: 1074-1081). In the present case, t is the Time to Onset (TTO) of damage creating a bi-asymptotic behavior. This adapted model is used to describe lowest exposure level (LEL) under first order, steady state assumptions, as
Real-time oxygen measurements were performed optically using on-chip lifetime-based luminescence quenching (LBLQ). […]

[2] = test system: E6/E7^LOW human hepatocytes; test: Steatosis and phospholipidosis, HCS LipidTOX detection kit, hepatocyte cultures; format: cell-based
Description: Quantification of Apoptotic index was performed using DeadEnd™ fluorometric TUNEL System (Promega) according to manufacturer directions. Briefly, cells were treated with TC20 concentrations of compounds dissolved in culture medium for 24 hours, and subsequently fixed in 4% Paraformaldehyde (PFA). Cells were then permeabilized and exposed to fluorescein-12-dUTP and terminal deoxynucleotidyl transferase (TdT). The reaction was subsequently stopped and the cells counterstained with 1 μg/mL Hoechst 33258. Apoptotic cells were positive for green fluorescence in the nucleus. Percentage apoptosis was defined as the number of TUNEL positive nuclei normalized to Hoechst 33258 positive nuclei. Quantification of Steatosis was performed using HCS LipidTOX™ Phospholipidosis and Steatosis Detection Kit (ThermoFisher). Briefly, differentiated cells were incubated with different concentrations of compounds dissolved in culture medium and 1× Phospholipidosis Detection Reagent for 48 hours, subsequently fixed in 4% PFA. Cells were then stained with 1× LipidTOX™ for 20 minutes and counterstained with 1 μg/mL Hoechst 33258. Staining intensity was normalized to number of Hoechst 33258 positive nuclei. Quantification of Bile Secretion was performed using 5(6)-carboxy-2′,7′-dichlorofluorescein diacetate (CDFDA) staining. Briefly, differentiated cells were incubated with different concentrations of compounds dissolved in culture medium for 24 hours. Cells were then treated with 10 μg/mL CDFDA and 1 μg/mL Hoechst 33342 for 30 minutes. Incubation medium was removed and cultures washed with ice-cold PBS containing calcium and magnesium. Staining intensity was normalized to number of Hoechst 33342 positive nuclei. Analysis excluded Intracellular CDFDA staining based on intensity and phase images. All quantifications were made in comparison to cells treated with melatonin as negative control.
Quantification of Apoptotic index was performed using DeadEnd™ fluorometric TUNEL System (Promega) according to manufacturer directions. Briefly, cells were treated with TC20 concentrations of compounds dissolved in culture medium for 24 hours, and subsequently fixed in 4% Paraformaldehyde (PFA). Cell were then permeabilized and exposed to fluorescein-12-dUTP and terminal deoxynucleotidyl transferase (TdT). The reaction was subsequently stopped and the cells counterstained with 1 μg/mL Hoechst 33258. Apoptotic cells were positive for green fluorescence in the nucleus. […] Quantification of Steatosis was performed using HCS LipidTOX™ Phospholipidosis and Steatosis Detection Kit (ThermoFisher). […] Quantification of Bile Secretion was performed using 5(6)-carboxy-2′,7′-dichlorofluorescein diacetate (CDFDA) staining. […] All quantifications were made in comparison to cells treated with melatonin as negative control.

HepG2/C3A organoids [3] = test: Neutral lipid and phospholipid staining of HepG2/C3A organoids on chip; format: cell-based, human; conditions: p<0.001, n=9
E6/E7^LOW hepatocytes = conditions: flux balance analysis, below threshold of cellular damage; Valproate sustained, Stavudine transient
Description: According to some embodiments of the invention there is a sensor-integrated liver on chip array in which oxygen is monitored using two-frequency phase modulation of tissue-embedded phosphorescent microprobes, while glucose, lactate and temperature are measured in real time using microfluidic electrochemical sensors. Such a microphysiological platform permits the calculation of dynamic changes in metabolic fluxes around central carbon metabolism, producing a unique metabolic fingerprint of the liver's response to stimuli.

[4] = cited from earlier work

**Q.** Which TC50 (HepG2/C3A organoids [1]; at 24 hours) does the source give for `CCCC(CCC)C(=O)O` [Valproate, 2-n-propylpentanoic acid] here?
**A.** The TC50 was 27 mM.

**Q.** And the TC50 (HepG2/C3A organoids [1]; at 42 hours)?
**A.** Its TC50 is 14 mM and 14 ± 2 mM.

**Q.** And the “Time to onset (TTO) of response” value (HepG2/C3A organoids [1]; dose-dependent range over concentrations tested)?
**A.** The value was 6 to 36 h.

**Q.** What about the “lowest exposure level (LEL)” value (HepG2/C3A organoids [1]; ± standard error) of the same molecule?
**A.** The value was 280 ± 97 µM.

**Q.** What about the “lowest exposure level (LEL)” value (HepG2/C3A organoids [1]; ± standard error of curve fit) of the same molecule?
**A.** The value was 280 ± 97 µM.

**Q.** And the “TC50 plateau value as a function of time” value (HepG2/C3A organoids [1]; plateau of TC50 over time)?
**A.** The value was “around 5 mM”.

**Q.** And the direct mitochondrial damage (HepG2/C3A organoids [1]; sub-toxic levels)?
**A.** Its direct mitochondrial damage is “no indication of direct mitochondrial damage”.

**Q.** What about the phospholipidosis [2] of the same molecule?
**A.** The phospholipidosis was “Evidence of phospholipidosis was seen”.

**Q.** What about the neutral lipids ([2]; p<0.001, n=4) of the same molecule?
**A.** Its neutral lipids is “strong and significant increase”.

**Q.** And the “increase in the amount of intracellular lipids” value (HepG2/C3A organoids [3])?
**A.** Its value is 4 fold.

**Q.** What about the increase in lipogenesis (E6/E7^LOW hepatocytes) of the same molecule?
**A.** The increase in lipogenesis was 15%.

**Q.** And the “patients with evidence of steatosis” value ([4]; abdominal ultrasound)?
**A.** The value was 61%.

**Q.** What about the “patients with elevated liver enzymes” value ([4]; patients on therapy) of the same molecule?
**A.** Its value is “Over 40%”.
